From PubChem BioAssay AID2060613 (Molecular Pharmacology Branch, DTP, NCI, 2025)
pIC50: −log10 of the molar value. Where “and” joins values, the source holds several entries; their conditions need not be identical. Equal entries are not always repeated. One block for each compound: values may come before it.

Tested on: 233499-124-R-J3-PDC complex spheroid viability
Experiment: Anticancer human tumor 233499-124-R-J3-PDC patient-derived colon adenocarcinoma cell line growth inhibition [CLK]
Settings: for viability, T/C: stronger effect = lower value
Procedure, shortened: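 Patient-derived tumor cells grown as complex spheroids with HUVEC endothelial cells and mesenchymal stem cells, treated with drug combinations. Concentrations descend in half-log steps from near clinical Cmax, or from 10 microM if Cmax unknown.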

[1] = curve of first compound, second compound 0.0316 µM
[2] = curve of first compound, second compound 0.1 µM
[3] = curve of first compound, second compound 0.316 µM
[4] = curve of first compound, second compound 1 µM
[5] = curve of first compound, second compound 3.16 µM
[6] = curve of first compound, second compound 10 µM
[7] = second compound 0.0316 µM, first compound 0.0316 µM
[8] = second compound 0.0316 µM, first compound 0.1 µM
[9] = second compound 0.0316 µM, first compound 0.316 µM
[10] = second compound 0.0316 µM, first compound 1 µM
[11] = second compound 0.0316 µM, first compound 3.16 µM
[12] = second compound 0.0316 µM, first compound 10 µM
[13] = second compound 0.1 µM, first compound 0.0316 µM
[14] = second compound 0.1 µM, first compound 0.1 µM
[15] = second compound 0.1 µM, first compound 0.316 µM
[16] = second compound 0.1 µM, first compound 1 µM
[17] = second compound 0.1 µM, first compound 3.16 µM
[18] = second compound 0.1 µM, first compound 10 µM
[19] = second compound 0.316 µM, first compound 0.0316 µM
[20] = second compound 0.316 µM, first compound 0.1 µM
[21] = second compound 0.316 µM, first compound 0.316 µM
[22] = second compound 0.316 µM, first compound 1 µM
[23] = second compound 0.316 µM, first compound 3.16 µM
[24] = second compound 0.316 µM, first compound 10 µM
[25] = second compound 1 µM, first compound 0.0316 µM
[26] = second compound 1 µM, first compound 0.1 µM
[27] = second compound 1 µM, first compound 0.316 µM
[28] = second compound 1 µM, first compound 1 µM
[29] = second compound 1 µM, first compound 3.16 µM
[30] = second compound 1 µM, first compound 10 µM
[31] = second compound 3.16 µM, first compound 0.0316 µM
[32] = second compound 3.16 µM, first compound 0.1 µM
[33] = second compound 3.16 µM, first compound 0.316 µM
[34] = second compound 3.16 µM, first compound 1 µM
[35] = second compound 3.16 µM, first compound 3.16 µM
[36] = second compound 3.16 µM, first compound 10 µM
[37] = second compound 10 µM, first compound 0.0316 µM
[38] = second compound 10 µM, first compound 0.1 µM
[39] = second compound 10 µM, first compound 0.316 µM
[40] = second compound 10 µM, first compound 1 µM
[41] = second compound 10 µM, first compound 3.16 µM
[42] = second compound 10 µM, first compound 10 µM
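Also: spheroids exposed to the drug combinations for seven days.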
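For viability, T/C in this document: percent viability relative to DMSO vehicle control wells taken as 100%.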

Structure (SMILES): CC(=O)O[C@H]1C(=O)[C@@]2(C)[C@H]([C@H](OC(=O)c3ccccc3)[C@]3(O)C[C@H](OC(=O)[C@H](O)[C@@H](NC(=O)c4ccccc4)c4ccccc4)C(C)=C1C3(C)C)[C@]1(OC(C)=O)CO[C@@H]1C[C@@H]2O + CN1CCN(c2cc(C(=O)Nc3cc4cc(-c5cnn(C)c5)ccc4cn3)ccn2)CC1
- pIC50 [1]: 7.16
- pIC50 [2]: 7.24
- pIC50 [3]: 7.40
- pIC50 [4]: > 7.50
- pIC50 [5]: > 7.50
- pIC50 [6]: > 7.50
- viability, T/C [7]: 79.9%
- viability, T/C [8]: 36.4%
- viability, T/C [9]: 15.7%
- viability, T/C [10]: 14.2%
- viability, T/C [11]: 14.4%
- viability, T/C [12]: 21.8%
- viability, T/C [13]: 77.1%
- viability, T/C [14]: 25.5%
- viability, T/C [15]: 11.9%
- viability, T/C [16]: 10.2%
- viability, T/C [17]: 12%
- viability, T/C [18]: 15.1%
- viability, T/C [19]: 57.5%
- viability, T/C [20]: 18.2%
- viability, T/C [21]: 15.6%
- viability, T/C [22]: 11.5%
- viability, T/C [23]: 13.8%
- viability, T/C [24]: 11.9%
- viability, T/C [25]: 0.76%
- viability, T/C [26]: 1.44%
- viability, T/C [27]: 1.17%
- viability, T/C [28]: 1.02%
- viability, T/C [29]: 0.56%
- viability, T/C [30]: 0.53%
- viability, T/C [31]: 0.61%
- viability, T/C [32]: 0.63%
- viability, T/C [33]: 0.56%
- viability, T/C [34]: 0.52%
- viability, T/C [35]: 0.59%
- viability, T/C [36]: 0.74%
- viability, T/C [37]: 0.46%
- viability, T/C [38]: 0.45%
- viability, T/C [39]: 0.39%
- viability, T/C [40]: 0.43%
- viability, T/C [41]: 0.43%
- viability, T/C [42]: 0.39%

Structure (SMILES): NC(=O)C(=Cn1cnc(-c2cc(C(F)(F)F)cc(C(F)(F)F)c2)n1)c1cncnc1 + CN1CCN(c2cc(C(=O)Nc3cc4cc(-c5cnn(C)c5)ccc4cn3)ccn2)CC1
- pIC50 [1]: 6.74
- pIC50 [2]: 7.11
- pIC50 [3]: > 8.02
- pIC50 [4]: > 8.02
- pIC50 [5]: > 8.02
- pIC50 [6]: > 8.02
- viability, T/C (second compound 0.0316 µM, first compound 0.00949 µM): 72.5%
- viability, T/C (second compound 0.0316 µM, first compound 0.03 µM): 85.6%
- viability, T/C (second compound 0.0316 µM, first compound 0.0949 µM): 67.3%
- viability, T/C (second compound 0.0316 µM, first compound 0.3 µM): 35.2%
- viability, T/C (second compound 0.0316 µM, first compound 0.949 µM): 10.4%
- viability, T/C (second compound 0.0316 µM, first compound 3 µM): 2.15%
- viability, T/C (second compound 0.1 µM, first compound 0.00949 µM): 102%
- viability, T/C (second compound 0.1 µM, first compound 0.03 µM): 96.2%
- viability, T/C (second compound 0.1 µM, first compound 0.0949 µM): 39.2%
- viability, T/C (second compound 0.1 µM, first compound 0.3 µM): 7.63%
- viability, T/C (second compound 0.1 µM, first compound 0.949 µM): 0.53%
- viability, T/C (second compound 0.1 µM, first compound 3 µM): 0.43%
- viability, T/C (second compound 0.316 µM, first compound 0.00949 µM): 22.2%
- viability, T/C (second compound 0.316 µM, first compound 0.03 µM): 13.2%
- viability, T/C (second compound 0.316 µM, first compound 0.0949 µM): 0.29%
- viability, T/C (second compound 0.316 µM, first compound 0.3 µM): 0.23%
- viability, T/C (second compound 0.316 µM, first compound 0.949 µM): 0.39%
- viability, T/C (second compound 0.316 µM, first compound 3 µM): 1.07%
- viability, T/C (second compound 1 µM, first compound 0.00949 µM): 0.3%
- viability, T/C (second compound 1 µM, first compound 0.03 µM): 0.31%
- viability, T/C (second compound 1 µM, first compound 0.0949 µM): 0.31%
- viability, T/C (second compound 1 µM, first compound 0.3 µM): 0.25%
- viability, T/C (second compound 1 µM, first compound 0.949 µM): 0.48%
- viability, T/C (second compound 1 µM, first compound 3 µM): 0.23%
- viability, T/C (second compound 3.16 µM, first compound 0.00949 µM): 0.3%
- viability, T/C (second compound 3.16 µM, first compound 0.03 µM): 0.26%
- viability, T/C (second compound 3.16 µM, first compound 0.0949 µM): 0.25%
- viability, T/C (second compound 3.16 µM, first compound 0.3 µM): 0.25%
- viability, T/C (second compound 3.16 µM, first compound 0.949 µM): 0.21%
- viability, T/C (second compound 3.16 µM, first compound 3 µM): 0.19%
- viability, T/C (second compound 10 µM, first compound 0.00949 µM): 0.13%
- viability, T/C (second compound 10 µM, first compound 0.03 µM): 0.12%
- viability, T/C (second compound 10 µM, first compound 0.0949 µM): 0.19%
- viability, T/C (second compound 10 µM, first compound 0.3 µM): 0.17%
- viability, T/C (second compound 10 µM, first compound 0.949 µM): 0.19%
- viability, T/C (second compound 10 µM, first compound 3 µM): 0.21%

- pIC50 (curve of compound): 5.11 and < 5.00
Structure (SMILES): C=C(F)C(=O)N1CCN(c2nc(OCC3CCCN3C)nc3c2CCN(c2cccc4cccc(Cl)c24)C3)CC1CC#N (stereo unspecified)
- viability, T/C (compound 0.0316 µM): 99.9% and 96.2%
- viability, T/C (compound 0.1 µM): 86.9% and 90.1%
- viability, T/C (compound 0.316 µM): 97% and 99.1%
- viability, T/C (compound 1 µM): 95.4% and 97.3%
- viability, T/C (compound 3.16 µM): 94.6% and 89.2%
- viability, T/C (compound 10 µM): 38% and 87.9%

Structure (SMILES): Nc1ccn(C2OC(CO)C(O)C2(F)F)c(=O)n1 (stereo unspecified) + CN1CCN(c2cc(C(=O)Nc3cc4cc(-c5cnn(C)c5)ccc4cn3)ccn2)CC1
- pIC50 [1]: 6.50
- pIC50 [2]: 6.66
- pIC50 [3]: 6.77
- pIC50 [4]: > 7.50
- pIC50 [5]: > 7.50
- pIC50 [6]: > 7.50
- viability, T/C [7]: 80%
- viability, T/C [8]: 95.4%
- viability, T/C [9]: 49.6%
- viability, T/C [10]: 34.2%
- viability, T/C [11]: 37%
- viability, T/C [12]: 27.2%
- viability, T/C [13]: 101%
- viability, T/C [14]: 92.1%
- viability, T/C [15]: 29.6%
- viability, T/C [16]: 19.2%
- viability, T/C [17]: 23.2%
- viability, T/C [18]: 21.4%
- viability, T/C [19]: 101%
- viability, T/C [20]: 71%
- viability, T/C [21]: 24.7%
- viability, T/C [22]: 7.57%
- viability, T/C [23]: 12.1%
- viability, T/C [24]: 5.63%
- viability, T/C [25]: 1.31%
- viability, T/C [26]: 0.86%
- viability, T/C [27]: 0.41%
- viability, T/C [28]: 1.47%
- viability, T/C [29]: 0.37%
- viability, T/C [30]: 0.46%
- viability, T/C [31]: 0.7%
- viability, T/C [32]: 0.69%
- viability, T/C [33]: 0.53%
- viability, T/C [34]: 0.46%
- viability, T/C [35]: 0.48%
- viability, T/C [36]: 0.62%
- viability, T/C [37]: 0.45%
- viability, T/C [38]: 0.5%
- viability, T/C [39]: 0.68%
- viability, T/C [40]: 0.58%
- viability, T/C [41]: 0.44%
- viability, T/C [42]: 0.38%

Structure (SMILES): CCc1c2c(nc3ccc(O)cc13)-c1cc3c(c(=O)n1C2)COC(=O)[C@]3(O)CC
- viability, T/C (compound 0.00316 µM): 88.5% and 83.9%
- viability, T/C (compound 0.01 µM): 62.1% and 59.6%
- viability, T/C (compound 0.0316 µM): 87.1% and 45.6%
- viability, T/C (compound 0.1 µM): 92.3% and 52.8%
- viability, T/C (compound 0.316 µM): 80.8% and 49.8%
- viability, T/C (compound 1 µM): 42% and 37.8%

Structure (SMILES): O=C(c1cc(Cc2n[nH]c(=O)c3ccccc23)ccc1F)N1CCN(C(=O)C2CC2)CC1 + CN1CCN(c2cc(C(=O)Nc3cc4cc(-c5cnn(C)c5)ccc4cn3)ccn2)CC1
- pIC50 [1]: < 5.00
- pIC50 [2]: < 5.00
- pIC50 [3]: < 5.00
- pIC50 [4]: > 7.50
- pIC50 [5]: > 7.50
- pIC50 [6]: > 7.50
- viability, T/C [7]: 79.9%
- viability, T/C [8]: 98.1%
- viability, T/C [9]: 96.8%
- viability, T/C [10]: 108%
- viability, T/C [11]: 99.4%
- viability, T/C [12]: 93.2%
- viability, T/C [13]: 98.6%
- viability, T/C [14]: 105%
- viability, T/C [15]: 103%
- viability, T/C [16]: 109%
- viability, T/C [17]: 110%
- viability, T/C [18]: 82.4%
- viability, T/C [19]: 103%
- viability, T/C [20]: 99.4%
- viability, T/C [21]: 103%
- viability, T/C [22]: 93.8%
- viability, T/C [23]: 96.8%
- viability, T/C [24]: 87.1%
- viability, T/C [25]: 3.57%
- viability, T/C [26]: 2.51%
- viability, T/C [27]: 2.71%
- viability, T/C [28]: 16.4%
- viability, T/C [29]: 3.61%
- viability, T/C [30]: 1.27%
- viability, T/C [31]: 0.91%
- viability, T/C [32]: 0.94%
- viability, T/C [33]: 0.75%
- viability, T/C [34]: 0.71%
- viability, T/C [35]: 0.8%
- viability, T/C [36]: 1.09%
- viability, T/C [37]: 0.64%
- viability, T/C [38]: 0.56%
- viability, T/C [39]: 0.6%
- viability, T/C [40]: 4.25%
- viability, T/C [41]: 0.89%
- viability, T/C [42]: 1.84%
